Source: PubChem BioAssay AID256 (DTP/NCI, 2004)
Several values for one entry are separate records, joined by “and”; a condition that tells them apart may be missing. Equal values may be shown once. Inconclusive results and toxic doses are left out.

Test system: CD2F1 mice, L1210 leukemia ip, survival T/C
Assay: NCI In Vivo Anticancer Drug Screen. Data for tumor model L1210 Leukemia (intraperitoneal) in CD2F1 (CDF1) mice
Conditions: higher = longer survival
How it was run: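 Mice carrying a transplanted tumor received test compound or vehicle alone. The value is the measurement in the treated group divided by that in the vehicle-treated control group.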

[1] = endpoint: mean survival time, dose: 25.0 mg/kg/injection, schedule: Q01DX009 (ip), vehicle: saline
[2] = endpoint: mean survival time, dose: 50.0 mg/kg/injection, schedule: Q01DX009 (ip), vehicle: saline
[3] = endpoint: mean survival time, dose: 100.0 mg/kg/injection, schedule: Q04DX002 (ip), vehicle: saline with Tween-80
[4] = endpoint: mean survival time, dose: 200.0 mg/kg/injection, schedule: Q04DX002 (ip), vehicle: saline with Tween-80
[5] = endpoint: mean survival time, dose: 100.0 mg/kg/injection, schedule: Q04DX003 (ip), vehicle: saline
[6] = endpoint: mean survival time, dose: 200.0 mg/kg/injection, schedule: Q04DX003 (ip), vehicle: saline
[7] = endpoint: mean survival time, dose: 100.0 mg/kg/injection, schedule: Q04DX003 (ip), vehicle: saline with Tween-80
[8] = endpoint: mean survival time, dose: 200.0 mg/kg/injection, schedule: Q04DX003 (ip), vehicle: saline with Tween-80
[9] = endpoint: mean survival time, dose: 400.0 mg/kg/injection, schedule: Q04DX003 (ip), vehicle: saline with Tween-80
[10] = endpoint: mean survival time, dose: 75.0 mg/kg/injection, schedule: Q01DX001 (ip), vehicle: saline
[11] = endpoint: mean survival time, dose: 150.0 mg/kg/injection, schedule: Q01DX001 (ip), vehicle: saline
[12] = endpoint: mean survival time, dose: 300.0 mg/kg/injection, schedule: Q01DX001 (ip), vehicle: saline
[13] = endpoint: mean survival time, dose: 100.0 mg/kg/injection, schedule: Q01DX009 (ip), vehicle: saline with Tween-80
[14] = endpoint: mean survival time, dose: 100.0 mg/kg/injection, schedule: Q01DX001 (ip), vehicle: saline with Tween-80
[15] = endpoint: mean survival time, dose: 25.0 mg/kg/injection, schedule: Q01DX001 (ip), vehicle: saline with Tween-80
[16] = endpoint: mean survival time, dose: 50.0 mg/kg/injection, schedule: Q01DX001 (ip), vehicle: saline with Tween-80

In the case of Cc1cc2nc3c(=O)[nH]c(=O)nc-3n(CC(O)C(O)C(O)C(O)CO)c2cc1C (configuration not stated), the T/C [1] is reported as 101 % of control, the T/C (endpoint: mean survival time, dose: 25.0 mg/kg/injection, schedule: Q01DX009 (ip), vehicle: suspension in saline) is reported as 96 % of control and the T/C [2] is reported as 93 % of control. The T/C (endpoint: mean survival time, dose: 50.0 mg/kg/injection, schedule: Q01DX009 (ip), vehicle: suspension in saline) was 104 % of control, the T/C (endpoint: mean survival time, dose: 100.0 mg/kg/injection, schedule: Q01DX009 (ip), vehicle: saline) was 95 % of control and the T/C (endpoint: mean survival time, dose: 100.0 mg/kg/injection, schedule: Q01DX009 (ip), vehicle: suspension in saline) was 102 % of control. For the same compound, the T/C (endpoint: mean survival time, dose: 200.0 mg/kg/injection, schedule: Q01DX009 (ip), vehicle: saline) was 98 % of control, the T/C (endpoint: mean survival time, dose: 200.0 mg/kg/injection, schedule: Q01DX009 (ip), vehicle: suspension in saline) was 98 % of control and the T/C (endpoint: mean survival time, dose: 400.0 mg/kg/injection, schedule: Q01DX009 (ip), vehicle: saline) was 103 % of control. The T/C (endpoint: mean survival time, dose: 400.0 mg/kg/injection, schedule: Q01DX009 (ip), vehicle: suspension in saline) was 98 % of control and the T/C (endpoint: mean survival time, dose: 800.0 mg/kg/injection, schedule: Q01DX009 (ip), vehicle: saline) was 95 % of control.
In the case of COc1ccc(COC(=O)Nc2ccc(Cl)cc2)cc1, the T/C (endpoint: mean survival time, dose: 50.0 mg/kg/injection, schedule: Q04DX002 (ip), vehicle: saline with Tween-80) is reported as 104 % of control, the T/C [3] is reported as 100 % of control and the T/C [4] is reported as 92 % of control.
In the case of NC(=O)CCC(NC(=O)c1cnc2ccccc2n1)C(=O)O (configuration not stated), the T/C (endpoint: mean survival time, dose: 100.0 mg/kg/injection, schedule: Q01DX001 (ip), vehicle: saline) is reported as 97 % of control, the T/C [5] is reported as 105 % of control and the T/C (endpoint: mean survival time, dose: 200.0 mg/kg/injection, schedule: Q01DX001 (ip), vehicle: saline) is reported as 97 % of control. For the same compound, the T/C [6] was 100 % of control, the T/C (endpoint: mean survival time, dose: 400.0 mg/kg/injection, schedule: Q01DX001 (ip), vehicle: saline) was 95 % of control and the T/C (endpoint: mean survival time, dose: 400.0 mg/kg/injection, schedule: Q04DX003 (ip), vehicle: saline) was 102 % of control.
CCOC(=O)Cn1c(=O)cc(C)c2ccccc21 was tested, and the T/C [7] was 100 % of control, the T/C [8] was 101 % of control and the T/C [9] was 101 % of control.
NC(=S)Nc1ccccn1 was tested, and the T/C (endpoint: mean survival time, dose: 25.0 mg/kg/injection, schedule: Q04DX003 (ip), vehicle: saline with Tween-80) was 100 % of control, the T/C (endpoint: mean survival time, dose: 50.0 mg/kg/injection, schedule: Q04DX003 (ip), vehicle: saline with Tween-80) was 102 % of control and the T/C [7] was 93 % of control.
NC(=O)CC(NC(=O)C(F)(F)F)C(=O)O (configuration not stated) was tested, and the T/C [10] was 101 % of control, the T/C [11] was 95 % of control and the T/C [12] was 101 % of control.
With C/C=C1\CN2CCC34c5ccccc5N5C(=O)CCC(C1CC23)C54 (configuration not stated) the T/C (endpoint: mean survival time, dose: 5.0 mg/kg/injection, schedule: Q01DX001 (ip), vehicle: saline) was 98 % of control, the T/C (endpoint: mean survival time, dose: 10.0 mg/kg/injection, schedule: Q01DX001 (ip), vehicle: saline) was 98 % of control and the T/C (endpoint: mean survival time, dose: 20.0 mg/kg/injection, schedule: Q01DX001 (ip), vehicle: saline) was 98 % of control. The T/C (endpoint: mean survival time, dose: 40.0 mg/kg/injection, schedule: Q01DX001 (ip), vehicle: saline) was 100 % of control.
With O=C(Nc1cc(C(F)(F)F)ccc1Cl)c1cccc(Cl)c1 the T/C [13] was 95 % of control, the T/C [7] was 102 % of control and the T/C (endpoint: mean survival time, dose: 200.0 mg/kg/injection, schedule: Q01DX009 (ip), vehicle: saline with Tween-80) was 98 % of control. For the same compound, the T/C [8] was 93 % of control, the T/C (endpoint: mean survival time, dose: 400.0 mg/kg/injection, schedule: Q01DX009 (ip), vehicle: saline with Tween-80) was 98 % of control and the T/C [9] was 94 % of control.
In the case of Cc1nc(N)[nH]c(=O)c1-n1nnc2ccccc2c1=O, the T/C [14] is reported as 92 % of control, the T/C (endpoint: mean survival time, dose: 200.0 mg/kg/injection, schedule: Q01DX001 (ip), vehicle: saline with Tween-80) is reported as 87 % of control and the T/C (endpoint: mean survival time, dose: 400.0 mg/kg/injection, schedule: Q01DX001 (ip), vehicle: saline with Tween-80) is reported as 89 % of control.
With CCCCCCCCCCCCCCCCCC[N+]1(Cc2ccccc2)CCOCC1 the T/C (endpoint: mean survival time, dose: 25.0 mg/kg/injection, schedule: Q01DX009 (ip), vehicle: saline with Tween-80) was 103 % of control, the T/C (endpoint: mean survival time, dose: 50.0 mg/kg/injection, schedule: Q01DX009 (ip), vehicle: saline with Tween-80) was 115 % of control and the T/C [13] was 91 % of control and 100 % of control.
CN1CCCN(C)C1 was tested, and the T/C [10] was 97 % of control, the T/C [11] was 97 % of control and the T/C [12] was 102 % of control.
NC(C(=O)O)c1ccc(CBr)cc1 (configuration not stated) was tested, and the T/C (endpoint: median survival time, dose: 3.12 mg/kg/injection, schedule: Q01DX009 (ip), vehicle: saline with Tween-80) was 108 % of control, the T/C (endpoint: median survival time, dose: 6.25 mg/kg/injection, schedule: Q01DX009 (ip), vehicle: saline with Tween-80) was 116 % of control and 100 % of control and 112 % of control and the T/C (endpoint: median survival time, dose: 12.5 mg/kg/injection, schedule: Q01DX009 (ip), vehicle: saline with Tween-80) was 113 % of control and 121 % of control and 105 % of control. The T/C (endpoint: median survival time, dose: 25.0 mg/kg/injection, schedule: Q01DX009 (ip), vehicle: saline with Tween-80) was 116 % of control and 103 % of control and the T/C (endpoint: median survival time, dose: 50.0 mg/kg/injection, schedule: Q01DX009 (ip), vehicle: saline with Tween-80) was 121 % of control and 108 % of control.
For CCCCNC(C)[C@]1(O)Cc2c(O)c3c(c(O)c2[C@@H](OC2CC(N)C(O)C(C)O2)C1)C(=O)c1c(OC)cccc1C3=O (some centres not stated), the T/C (endpoint: mean survival time, dose: 0.15 mg/kg/injection, schedule: Q01DX009 (ip), vehicle: water) was 106 % of control, the T/C (endpoint: mean survival time, dose: 0.31 mg/kg/injection, schedule: Q01DX009 (ip), vehicle: water) was 114 % of control and the T/C (endpoint: mean survival time, dose: 0.62 mg/kg/injection, schedule: Q01DX009 (ip), vehicle: water) was 111 % of control. The T/C (endpoint: mean survival time, dose: 1.25 mg/kg/injection, schedule: Q01DX009 (ip), vehicle: water) was 112 % of control, the T/C (endpoint: mean survival time, dose: 2.5 mg/kg/injection, schedule: Q01DX009 (ip), vehicle: water) was 122 % of control and the T/C (endpoint: mean survival time, dose: 5.0 mg/kg/injection, schedule: Q01DX009 (ip), vehicle: water) was 118 % of control. For the same compound, the T/C (endpoint: mean survival time, dose: 10.0 mg/kg/injection, schedule: Q01DX009 (ip), vehicle: water) was 88 % of control.
With NC(=O)c1ccc([N+](=O)[O-])cc1Cl the T/C [3] was 102 % of control, the T/C [4] was 94 % of control and the T/C (endpoint: mean survival time, dose: 400.0 mg/kg/injection, schedule: Q04DX002 (ip), vehicle: saline with Tween-80) was 94 % of control.
In the case of CCNC(C)(C)C(SSSC(c1ccc(Cl)cc1)C(C)(C)NCC)c1ccc(Cl)cc1 (configuration not stated), the T/C [5] is reported as 109 % of control and the T/C [6] is reported as 86 % of control.
For Cc1ccc(Cl)cc1NC(=O)Nc1nccs1, the T/C (endpoint: mean survival time, dose: 50.0 mg/kg/injection, schedule: Q01DX009 (ip), vehicle: Klucel (hydroxypropylcellulose) (HPC)) was 91 % of control, the T/C (endpoint: mean survival time, dose: 100.0 mg/kg/injection, schedule: Q01DX009 (ip), vehicle: Klucel (hydroxypropylcellulose) (HPC)) was 91 % of control and the T/C (endpoint: mean survival time, dose: 200.0 mg/kg/injection, schedule: Q01DX009 (ip), vehicle: Klucel (hydroxypropylcellulose) (HPC)) was 102 % of control.
In the case of O=C(OCC1CCN2CCCC12)c1ccccc1 (configuration not stated), the T/C (endpoint: mean survival time, dose: 12.5 mg/kg/injection, schedule: Q01DX009 (ip), vehicle: saline) is reported as 88 % of control, the T/C [1] is reported as 91 % of control and the T/C [2] is reported as 91 % of control.
In the case of O=C(Nc1cccc2ccccc12)OC1CCCCC1Br (configuration not stated), the T/C (endpoint: mean survival time, dose: 6.25 mg/kg/injection, schedule: Q01DX001 (ip), vehicle: saline with Tween-80) is reported as 100 % of control, the T/C (endpoint: mean survival time, dose: 12.5 mg/kg/injection, schedule: Q01DX001 (ip), vehicle: saline with Tween-80) is reported as 92 % of control and the T/C [15] is reported as 100 % of control. The T/C [16] was 93 % of control and the T/C [14] was 89 % of control.
With CC1(C)N=C(N)N=C(N)N1c1ccc(OCCCCNC(=O)Nc2cccc(S(=O)(=O)F)c2)c(Cl)c1 the T/C [15] was 105 % of control, the T/C [16] was 103 % of control and the T/C [14] was 95 % of control and 97 % of control.
In the case of CSc1nc(=O)[nH]nc1SCc1ccccc1, the T/C (endpoint: mean survival time, dose: 100.0 mg/kg/injection, schedule: Q01DX001 (ip), vehicle: carboxymethylcellulose (CMC)) is reported as 100 % of control, the T/C (endpoint: mean survival time, dose: 200.0 mg/kg/injection, schedule: Q01DX001 (ip), vehicle: carboxymethylcellulose (CMC)) is reported as 91 % of control and the T/C (endpoint: mean survival time, dose: 400.0 mg/kg/injection, schedule: Q01DX001 (ip), vehicle: carboxymethylcellulose (CMC)) is reported as 89 % of control.
For CCCCCNC(=O)CCC(NC(=O)c1ccc(N(C)Cc2cnc3nc(N)nc(N)c3n2)cc1)C(=O)O (configuration not stated), the T/C (endpoint: mean survival time, dose: 1.0 mg/kg/injection, schedule: Q01DX009 (ip), vehicle: sodium bicarbonate) was 107 % of control, the T/C (endpoint: mean survival time, dose: 10.0 mg/kg/injection, schedule: Q01DX009 (ip), vehicle: sodium bicarbonate) was 118 % of control and the T/C (endpoint: mean survival time, dose: 50.0 mg/kg/injection, schedule: Q01DX009 (ip), vehicle: sodium bicarbonate) was 122 % of control. For the same compound, the T/C (endpoint: mean survival time, dose: 200.0 mg/kg/injection, schedule: Q01DX009 (ip), vehicle: sodium bicarbonate) was 152 % of control and the T/C (endpoint: mean survival time, dose: 400.0 mg/kg/injection, schedule: Q01DX009 (ip), vehicle: sodium bicarbonate) was 164 % of control.
